Data as given in ChEMBL document CHEMBL1135106 (Bioorg Med Chem Lett, 2002).

What was measured:
HCT-116 = assay: Tested for antiproliferative activity against HCT116 colorectal human carcinoma cell using WST-1 assay; format: functional, cell-based
[1] = Tested for inhibitory concentration required to inhibit 50% of histone deacetylase (HDAC) purified from human T cell leukemia Jurkat cell
[2] = Tested for inhibitory concentration required to inhibit 50% of histone deacetylase (HDAC) from human T cell leukemia Jurkat cell; format: cell-based

Structure (SMILES) | IC50 (HCT-116) [µM] | IC50 [1] [µM] | IC50 [2] [µM]
O=C(NCC1CCC(C(=O)NO)CC1)NC12CC3CC(CC(C3)C1)C2 (stereo not drawn) | 20.9 |  | 
Nc1ccccc1NC(=O)c1ccc(CNC(=O)OCc2cccnc2)cc1 [ENTINOSTAT] | 5.4 |  | 
CC(/C=C/C(=O)NO)=C\[C@@H](C)C(=O)c1ccc(N(C)C)cc1 [TRICHOSTATIN] |  |  | 0.0033
O=C(NO)c1ccc(CNC(=O)c2cccc3ccccc23)cc1 | 9.7 | 0.83 | 
O=C(NCc1ccc(C(=O)NO)cc1)NC12CC3CC(CC(C3)C1)C2 | 112 |  | 

The remaining lines, values ahead:

IC50 (HCT-116) [µM] | IC50 [1] [µM] | IC50 [2] [µM] | Structure (SMILES)
4.7 | 0.31 |  | O=C(NCC1CCC(C(=O)NO)CC1)c1ccc(-c2ccccc2)cc1 (stereo not drawn)
0.7 | 0.044 |  | O=C(NO)c1ccc(CNC(=O)c2ccc3ccccc3c2)cc1
77.9 |  |  | O=C(NO)C1CCC(CNS(=O)(=O)c2ccccc2)CC1 (stereo not drawn)
3.2 | 0.24 |  | O=C(NO)c1ccc(CNC(=O)c2ccc(-c3ccccc3)cc2)cc1
